The record followed here is patent publication US20210179680A1, “POLYPEPTIDE, DERIVATIVES THEREOF, AND APPLICATION THEREOF IN PREPARATION OF DRUGS HAVING RESISTANCE TO PULMONARY FIBROSIS” (priority 2016, published 2021).

Molecules are shown by their SMILES. Bridge positions count the residues as written; N and C are the ends. Square brackets hold non-standard residues; d marks the D form. Peptide text beside a SMILES is read from it. S5 = C=CCCC[C@](C)(N)C(=O)O

Test [1] has as its system mice with bleomycin-induced pulmonary fibrosis. The test is described as follows: HE staining pathomorphology and inflammatory score of bleomycin-induced pulmonary fibrosis. It is filed as in vivo, C57BL/6 mice. To be noted: Table 3 groups, 2 mg/kg i.p., after 28 days, grade 0-5. As for the experimental part: (§1) Male C57BL/6 mice were fasted overnight, then anesthetized with 45 mg/kg sodium pentobarbital by injection intraperitoneally (i.p.), and intratracheally injected with bleomycin at a dose of 3 U/kg. The specific operation steps are as follows: cut the neck skin of the mouse with as little trauma as possible, expose the trachea with the assistance of elbow ophthalmic forceps, puncture the trachea and inject about 50 μL of bleomycin into the trachea with a microsyringe, rotate the mouse quickly and stand it upright for 5 minutes in order to make bleomycin evenly enter the left and right lobe, thereby constructing an animal model. The whole operation was performed at a surgical table at about […]. Mice in the sham operation group were intratracheally injected with an equal amount of physiological saline for injection.
General tissue changes and tissue products can be visualized by HE staining method, namely Hematoxylin and Eosin staining method, which is the most commonly used staining method for morphology. Among them, hematoxylin dyeing solution is an alkaline dyeing solution, which mainly makes the chromatin in the nucleus and the ribosome in the cytoplasm purple blue; eosin is an acid dye, which mainly makes the components in the cytoplasm and extracellular matrix red. Pulmonary fibrosis models were made according to the method described in Example 2 and administered in groups according to Table 3. After 28 days, the right lower lobe of lung tissue of the experimental animals was taken, and fixed with 4% (v/v) paraformaldehyde and embedded in paraffin. Section was performed on the largest cross-section of the paraffin block in which the lung tissue embedded, and basic pathological changes was observed through HE staining. […] The administration of polypeptides S1-S11 can reduce lung inflammation caused by bleomycin, and effectively ameliorate lung injury and restore normal lung structure.
The inflammatory grading was observed according to the results of HE staining, and the criteria were as follows (grade 0-5): grade “0”: normal tissue; grade “1”: extremely small inflammatory changes; grade “2”: mild to moderate inflammatory changes without apparent destruction of lung tissue structure; grade “3”: moderate inflammatory injury (thickening of alveolar diaphragm); grade “4”: moderate to severe inflammatory injury with formation of tissue mass, or the normal structure of lung tissue was destroyed by localized pneumonia area; grade “5”: severe inflammatory injury, severe destruction of the localized lung tissue structure, resulting in closure of lumen.
Pulmonary fibrosis models were made according to the method described in Example 2 and administered in groups according to Table 9. After 28 days, the right lower lobe of lung tissue of the experimental animals was taken, and fixed by 4% (v/v) paraformaldehyde and embedded in paraffin. Section was performed on the largest cross-section of the paraffin block in which the lung tissue embedded, and basic pathological changes was observed through HE staining.

For test [2] the test system is unchanged. Kind of test: Survival rate of mice with bleomycin-induced pulmonary fibrosis. It is filed as in vivo, C57BL/6 mice. The note with it: Table 3 groups: 2 mg/kg i.p., 10th to 28th day after modeling, twice a week. As to the method: as §1
The animal model with pulmonary fibrosis was prepared according to the method described in Example 2. The peptide therapy was started from the 10th day after modeling (the treatment groups are shown in Table 3), and the time was calculated from the 10th day after modeling to count the mortality rate. The death situation of each group of experimental animals was counted and calculated daily. […] The survival rate is the percentage of the number of mice that survived accounting for the number of mice in the whole group. Results are shown in FIG. 6-1, FIG. 6-2 and Table 4. […] In FIG. 6-1 and FIG. 6-2, “##” represents that P value is less than 0.01 when the survival rate of administration group was compared with that of the sham operation group; “*” represents that P value is less than 0.05 when the survival rate of administration group was compared with that of the bleomycin group; “**” represents that P value is less than 0.01 when the survival rate of administration group was compared with that of bleomycin group; and “i.p.” refers to intraperitoneal injection.
The animal model of pulmonary fibrosis was prepared according to the method described in Example 2. The polypeptide treatment was started from the 10th day after modeling (the treatment groups are shown in Table 9), and the time was calculated from the 10th day after modeling to count the mortality rate. The mortality rate of each group of experimental animals was recorded and calculated daily. If none of the animals in a group died, the survival rate of the group is 100%. If all the animals in a group died, the survival rate is 0%. […] In FIG. 12, “##” represents that P value is less than 0.01 when the survival rate of the administration groups were compared with that of the sham operation group; “*” represents that P value is less than 0.05 and “**” represents that P value is less than 0.01 when the survival rate of the administration groups were compared with bleomycin group.

Test [3] deals with T1, TRB3 protein (Homo sapiens, UniProt Q96RU7).
T1 construct: purchased RD
T1 sequence (Q96RU7 1-358): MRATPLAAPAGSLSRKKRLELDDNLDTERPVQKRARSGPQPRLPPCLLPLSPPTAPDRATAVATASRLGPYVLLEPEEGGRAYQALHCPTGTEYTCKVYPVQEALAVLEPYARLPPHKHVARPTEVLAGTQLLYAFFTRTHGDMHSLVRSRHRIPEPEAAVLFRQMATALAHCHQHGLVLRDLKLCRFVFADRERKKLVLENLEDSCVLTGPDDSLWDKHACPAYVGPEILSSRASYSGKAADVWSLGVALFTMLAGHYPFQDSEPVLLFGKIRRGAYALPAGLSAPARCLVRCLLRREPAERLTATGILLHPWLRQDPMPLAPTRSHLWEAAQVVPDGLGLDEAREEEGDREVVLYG
Kind of test: Surface plasmon resonance (Biacore T200) binding of polypeptides to TRB3 protein. To be noted: SPR, FIG. 4-1, 4-2 and Table 1. As for the experimental part:
The surface plasmon resonance experiment was carried out in a surface plasmon resonator Biacore T200, and the procedure was carried out in accordance with the instructions of the plasma resonator Biacore T200. Specific steps are as follows:
1. Purified TRB3 protein (purchased from RD) was coupled to a CMS chip (purchased from GE) by amidogen, and the unbound protein was eluted at a flow rate of 10 μL/min. The surface of the chip was equilibrated for 2 hours. Among them, the specific steps of amidogen coupling, elution and equilibration refer to the relevant instruction of GE's CMS chip.
2. 250 μL of the S1-S11 and MR2 polypeptide fragments prepared in Example 1 with different concentrations (800, 400, 200, 50, 12.5, 6.25, and 3.125 nM) were automatically injected, and the entire surface plasmon resonance experiment was carried out at 25° C. The buffer used was HBS-EP buffer [0.01 M HEPES, 0.15 M NaCl, 3 mM EDTA and 0.005% (w/w) surfactant TWEEN20]. Biacore T200's built-in analysis software was used to simulate the binding curves of different concentrations of peptides to TRB3.

Regarding `CSCC[C@H](NC(=O)[C@H](CC(C)C)NC(=O)[C@@H](N)Cc1c[nH]cn1)C(=O)N[C@@H](C)C(=O)N[C@@H](CS)C(=O)N[C@@]1(C)CCCC=CCCC[C@@](C)(C(=O)N[C@@H](CCCCN)C(=O)N[C@@H](CC(C)C)C(=O)N[C@@H](CCCCN)C(=O)N[C@@H](CCCCN)C(=O)N[C@@H](CCCNC(=N)N)C(=O)O)NC(=O)[C@H](C)NC(=O)[C@H](CS)NC(=O)[C@H]([C@@H](C)O)NC1=O` [S6, His-Leu-Met-Ala-Cys-S5-Thr-Cys-Ala-S5-Lys-Leu-Lys-Lys-Arg] (H-HLMAC[S5]TCA[S5]KLKKR-OH; staple 6-10; N-terminus and C-terminus assumed), the Inflammatory score in test [1] is on record as 3. For the same molecule, in test [2], the “Survival rate (%) 7 days” value stood at 100%, the “Survival rate (%) 14 days” value is 86.67%, the “Survival rate (%) 21 days” value was determined as 80% and the “Survival rate (%) 28 days” value worked out at 80%. Further, in test [3], the “interaction with the TRB3 protein (in words)” value (“interaction” below) is reported as “interacted with the TRB3 protein”.

The molecule `CSCC[C@H](NC(=O)[C@H](CC(C)C)NC(=O)[C@@H](N)Cc1c[nH]cn1)C(=O)N[C@@H](C)C(=O)N[C@@H](CS)C(=O)N[C@@H](Cc1ccccc1)C(=O)N[C@@]1(C)CCCC=CCCC[C@@](C)(C(=O)N[C@@H](CC(C)C)C(=O)N[C@@H](CCCCN)C(=O)N[C@@H](CCCCN)C(=O)N[C@@H](CCCNC(=N)N)C(=O)O)NC(=O)[C@H](CCCCN)NC(=O)[C@H](C)NC(=O)[C@H](CS)NC1=O` [S7, His-Leu-Met-Ala-Cys-Phe-S5-Cys-Ala-Lys-S5-Leu-Lys-Lys-Arg] (H-HLMACF[S5]CAK[S5]LKKR-OH; staple 7-11; N-terminus and C-terminus assumed) gave an Inflammatory score in test [1] of 2. In test [2], the “Survival rate (%) 7 days” value amounted to 100%, the “Survival rate (%) 14 days” value was 100%, the “Survival rate (%) 21 days” value is listed as 93.33% and the “Survival rate (%) 28 days” value came to 93.33%. Moreover, the “interaction” value in test [3] is reported as “interacted with the TRB3 protein”.

The molecule `CSCC[C@H](NC(=O)[C@H](CC(C)C)NC(=O)[C@@H](N)Cc1c[nH]cn1)C(=O)N[C@@H](C)C(=O)N[C@@H](CS)C(=O)N[C@@H](Cc1ccccc1)C(=O)N[C@H](C(=O)N[C@@]1(C)CCCC=CCCC[C@@](C)(C(=O)N[C@@H](CCCCN)C(=O)N[C@@H](CCCCN)C(=O)N[C@@H](CCCNC(=N)N)C(=O)O)NC(=O)[C@H](CCCCN)NC(=O)[C@H](CCCCN)NC(=O)[C@H](C)NC1=O)[C@@H](C)O` [S8, His-Leu-Met-Ala-Cys-Phe-Thr-S5-Ala-Lys-Lys-S5-Lys-Lys-Arg] (H-HLMACFT[S5]AKK[S5]KKR-OH; staple 8-12; N-terminus and C-terminus assumed) had an Inflammatory score in test [1] of 2.833. In addition, in test [2], the “Survival rate (%) 7 days” value was 100%, the “Survival rate (%) 14 days” value was 100%, the “Survival rate (%) 21 days” value was determined as 93.33% and the “Survival rate (%) 28 days” value is listed as 86.67%. For the same molecule, the “interaction” value in test [3] was “interacted with the TRB3 protein”.

`CSCC[C@H](NC(=O)[C@H](CC(C)C)NC(=O)[C@@H](N)Cc1c[nH]cn1)C(=O)N[C@@H](C)C(=O)N[C@@H](CS)C(=O)N[C@@H](Cc1ccccc1)C(=O)N[C@H](C(=O)N[C@@H](CS)C(=O)N[C@@]1(C)CCCC=CCCC[C@@](C)(C(=O)N[C@@H](CCCCN)C(=O)N[C@@H](CCCNC(=N)N)C(=O)O)NC(=O)[C@H](CC(C)C)NC(=O)[C@H](CCCCN)NC(=O)[C@H](CCCCN)NC1=O)[C@@H](C)O` [S9, His-Leu-Met-Ala-Cys-Phe-Thr-Cys-S5-Lys-Lys-Leu-S5-Lys-Arg] (H-HLMACFTC[S5]KKL[S5]KR-OH; staple 9-13; N-terminus and C-terminus assumed): the Inflammatory score in test [1] came to 2.167. For the same molecule, in test [2], the “Survival rate (%) 7 days” value came out at 100%, the “Survival rate (%) 14 days” value was found to be 93.33%, the “Survival rate (%) 21 days” value came to 93.33% and the “Survival rate (%) 28 days” value came to 93.33%. Further, the “interaction” value in test [3] is reported as “interacted with the TRB3 protein”.

Take `CSCC[C@H](NC(=O)[C@H](CC(C)C)NC(=O)[C@@H](N)Cc1c[nH]cn1)C(=O)N[C@@H](C)C(=O)N[C@@H](CS)C(=O)N[C@@H](Cc1ccccc1)C(=O)N[C@H](C(=O)N[C@@H](CS)C(=O)N[C@@H](C)C(=O)N[C@@]1(C)CCCC=CCCC[C@@](C)(C(=O)N[C@@H](CCCNC(=N)N)C(=O)O)NC(=O)[C@H](CCCCN)NC(=O)[C@H](CC(C)C)NC(=O)[C@H](CCCCN)NC1=O)[C@@H](C)O` [S10, His-Leu-Met-Ala-Cys-Phe-Thr-Cys-Ala-S5-Lys-Leu-Lys-S5-Arg] (H-HLMACFTCA[S5]KLK[S5]R-OH; staple 10-14; N-terminus and C-terminus assumed): the Inflammatory score in test [1] is recorded as 3. For the same molecule, in test [2], the “Survival rate (%) 7 days” value was 100%, the “Survival rate (%) 14 days” value is listed as 93.33%, the “Survival rate (%) 21 days” value came to 80% and the “Survival rate (%) 28 days” value is 80%. Also, the “interaction” value in test [3] is “interacted with the TRB3 protein”.
